Data reported in patent US20130030017A1, “QUINOLINE DERIVATIVES AS ANTIBACTERIAL AGENTS” (priority 2005, published 2013).
Values after ≈ are worked out from the molar mass of the structure shown.

Experiments:
[1] = system: Staphylococcus aureus (ATCC29213); assay: Microtitre plate assay, IC90 determination (STA 29213); assay type: cell-based; conditions: 90% inhibitory concentration for bacterial growth, 37° C., resazurin fluorescence; for IC90 STA 29213: 24 hours; for IC90: Staphylococcus aureus, ATCC29213, 24 h
Experimental: (§1) The bacteria used in this study were grown overnight in flasks containing 100 ml Mueller-Hinton Broth (Becton Dickinson—cat. no. 275730) in sterile de-ionized water, with shaking, at 37° C. Stocks (0.5 ml/tube) were stored at −70° C. until use. Bacteria titrations were performed in microtiter plates and colony forming units (CFUs) were determined. In general, an inoculum level of approximately 100 CFUs was used for susceptibility testing.
(§2) Flat-bottom, sterile 96-well plastic microtiter plates were filled with 180 μl of sterile deionized water, supplemented with 0.25% BSA. Subsequently, stock solutions (7.8× final test concentration) of compounds were added in 45 μl volumes in column 2 Serial five-fold dilutions (45 μl in 180 μl) were made directly in the microtiter plates from column 2 to reach column 11. Untreated control samples with (column 1) and without (column 12) inoculum were included in each microtiter plate. Depending on the bacteria type, approximately 10 to 60 CFU per well of bacteria inoculum (100 TCID50), in a volume of 100 μl in 2.8× Mueller-Hinton broth medium, was added to the rows A to H, except column 12. The same volume of broth medium without inoculum was added to column 12 in row A to H. The cultures were incubated at 37° C. for 24 hours under a normal atmosphere (incubator with open air valve and continuous ventilation). At the end of incubation, one day after inoculation, the bacterial growth was quantitated fluorometrically. Therefore resazurin (0.6 mg/ml) was added in a volume of 20 μl to all wells 3 hours after inoculation, and the plates were re-incubated overnight. A change in colour from blue to pink indicated the growth of bacteria. The fluorescence was read in a computer-controlled fluorometer (Cytofluor Biosearch) at an excitation wavelength of 530 nm and an emission wavelength of 590 nm. The % growth inhibition achieved by the compounds was calculated according to standard methods. The IC90 (expressed in μg/ml) was defined as the 90% inhibitory concentration for bacterial growth.

[2] = system: Streptococcus pneumoniae (ATCC6305); assay: Microtitre plate assay, IC90 determination (SPN 6305); assay type: cell-based; conditions: 90% inhibitory concentration for bacterial growth, 37° C., resazurin fluorescence; for IC90 SPN 6305: 24 hours; for IC90: Streptococcus pneumoniae, ATCC6305, 24 h
Experimental: as §1, §2

[3] = system: Enterococcus faecalis (ATCC29212); assay: Microtitre plate assay, IC90 determination (EFA 29212); assay type: cell-based; conditions: 90% inhibitory concentration for bacterial growth, 37° C., resazurin fluorescence; for IC90 EFA 29212: 24 hours; for IC90: Enterococcus faecalis, ATCC29212, 24 h
Experimental: as §1, §2

[4] = system: Pseudomonas aeruginosa (ATCC27853); assay: Microtitre plate assay, IC90 determination (PAE 27853); assay type: cell-based; conditions: 90% inhibitory concentration for bacterial growth, 37° C., resazurin fluorescence; for IC90 PAE 27853: 24 hours; for IC90: Pseudomonas aeruginosa, ATCC27853, 24 h
Experimental: as §1, §2

[5] = system: Streptococcus pyogens (ATCC8668); assay: Microtitre plate assay, IC90 determination (SPY 8668); assay type: cell-based; conditions: 90% inhibitory concentration for bacterial growth, 37° C., resazurin fluorescence; for IC90 SPY 8668: 24 hours; for IC90: Streptococcus, ATCC8668, 24 h
Experimental: as §1, §2

| Structure (SMILES) | IC90 STA 29213 [1] [µg/mL] | IC90 SPN 6305 [2] [µg/mL] | melting point [°C] | IC90 [1] [µg/mL] | IC90 [2] [µg/mL] | IC90 EFA 29212 [3] [µg/mL] | IC90 PAE 27853 [4] [µg/mL] | IC90 SPY 8668 [5] [µg/mL] | IC90 [4] [µg/mL] | IC90 [5] [µg/mL] | IC90 [3] [µg/mL] |
| --- | --- | --- | --- | --- | --- | --- | --- | --- | --- | --- | --- |
| COc1nc2cccc(Br)c2cc1C(c1ccccc1)C(O)(CCc1ccccc1)CCN(C)C (stereo not shown) [Compound 6] | 8.5 (≈ 15.9 µM) | 1.7 (≈ 3.19 µM) | 126 |  |  |  |  |  |  |  |  |
| COc1nc2ccc(Br)cc2cc1C(c1ccccc1)C(O)(CCc1cccc2ccccc12)CCN(C)C (stereo not shown) [Compound 7] | 52.0 (≈ 89.1 µM) | 46.4 (≈ 79.5 µM) | 206 |  |  |  |  |  |  |  |  |
| COc1nc2ccc(Cl)cc2cc1C(c1ccccc1)C(O)(CCc1ccccc1)CCN(C)C (stereo not shown) [Compound 9] |  |  | 172 | 24.5 (≈ 50.1 µM) | 1.7 (≈ 3.48 µM) |  |  |  |  |  |  |
| CSc1nc2ccc(Br)cc2cc1C(c1ccccc1)C(O)(CCc1ccccc1)CCN(C)C (stereo not shown) [Compound 10] |  | 9.8 (≈ 17.8 µM) | 191 | 13.8 (≈ 25.1 µM) |  |  |  |  |  |  |  |
| COc1nc2ccccc2cc1C(c1ccccc1)C(O)(CCc1ccccc1)CCN(C)C (stereo not shown) [Compound 12] |  |  | 122 | 10.2 (≈ 22.4 µM) | 9.1 (≈ 20 µM) |  |  |  |  |  |  |
| COc1nc2ccc(Br)cc2cc1C(c1ccccc1)C(O)(CCc1ccccc1)CCN(C)C (stereo not shown) [Compound 18] | 8.5 (≈ 15.9 µM) | 2.1 (≈ 3.94 µM) |  |  |  | 10.6 (≈ 19.9 µM) | 10.6 (≈ 19.9 µM) | 8.5 (≈ 15.9 µM) |  |  |  |
| COc1nc2ccc(Br)cc2cc1C(c1ccccc1)C(O)(CCc1ccccc1)CCN(C)C (stereo not shown) [Compound 19] | 8.5 (≈ 15.9 µM) | 2.1 (≈ 3.94 µM) |  |  |  | 1.7 (≈ 3.19 µM) | 1.7 (≈ 3.19 µM) | 1.7 (≈ 3.19 µM) |  |  |  |
| COc1nc2ccc(Br)cc2cc1C(c1ccccc1)C(O)(CCc1ccccc1)CCN(C)C (stereo not shown) [Compound 20] |  | 1.1 (≈ 2.06 µM) |  | 8.5 (≈ 15.9 µM) |  | 1.7 (≈ 3.19 µM) | 1.7 (≈ 3.19 µM) | 1.7 (≈ 3.19 µM) |  |  |  |
| COc1ccc(CCC(O)(CCN(C)C)C(c2ccc(Cl)cc2)c2cc3cc(Br)ccc3nc2OC)cc1 (stereo not shown) [Compound 22] |  | 0.4 (≈ 0.669 µM) |  | 1.9 (≈ 3.18 µM) |  | 9.5 (≈ 15.9 µM) |  |  | 1.9 (≈ 3.18 µM) | 1.9 (≈ 3.18 µM) |  |
| COc1nc2ccc(Br)cc2cc1C(c1ccccc1)C(O)(CCc1ccc(F)cc1)CCN(C)C (stereo not shown) [Compound 26] | 4.4 (≈ 7.98 µM) | 2.0 (≈ 3.63 µM) |  |  |  | 1.7 (≈ 3.08 µM) | 1.7 (≈ 3.08 µM) | 1.7 (≈ 3.08 µM) |  |  |  |
| COc1nc2ccc(Br)cc2cc1C(c1ccccc1)C(O)(CCc1ccc(F)cc1)CCN(C)C (stereo not shown) [Compound 28] | 1.7 (≈ 3.08 µM) | 0.9 (≈ 1.63 µM) |  |  |  | 3.9 (≈ 7.07 µM) | 3.9 (≈ 7.07 µM) | 3.9 (≈ 7.07 µM) |  |  |  |
| CSc1nc2ccc(Br)cc2cc1C(c1ccc(Cl)cc1)C(O)(CCc1ccccc1)CCN(C)C (stereo not shown) [Compound 31] | 58.4 (≈ 100 µM) | 0.4 (≈ 0.685 µM) |  |  |  |  |  |  | 9.3 (≈ 15.9 µM) | 1.9 (≈ 3.25 µM) | 58.4 (≈ 100 µM) |
| CN(C)CCC(O)(CCc1ccccc1)C(c1ccc(Cl)cc1)c1cc2cc(Br)ccc2nc1N(C)C (stereo not shown) [Compound 33] |  |  |  | 1.8 (≈ 3.1 µM) | 0.8 (≈ 1.38 µM) |  |  |  | 1.8 (≈ 3.1 µM) | 1.5 (≈ 2.58 µM) | 1.8 (≈ 3.1 µM) |
| COc1nc2ccc(Br)cc2cc1C(c1ccccc1)C(O)(CCc1ccc(F)cc1)CCN1CCCCC1 (stereo not shown) [Compound 35] |  | 3.7 (≈ 6.25 µM) |  | 59.2 (≈ 100 µM) |  |  |  |  | 59.2 (≈ 100 µM) | 9.4 (≈ 15.9 µM) | 59.2 (≈ 100 µM) |
| COc1nc2ccc(-c3cccnc3)cc2cc1C(c1ccccc1)C(O)(CCc1ccccc1)CCN(C)C (stereo not shown) [Compound 36] |  |  |  | 1.7 (≈ 3.2 µM) | 1.7 (≈ 3.2 µM) |  |  |  | 42.2 (≈ 79.4 µM) | 16.8 (≈ 31.6 µM) | 42.2 (≈ 79.4 µM) |
| COc1nc2ccc(Br)cc2cc1C(c1ccccc1)C(O)(CCN(C)C)Cc1cccc2ccccc12 (stereo not shown) [Compound 42] | 9.0 (≈ 15.8 µM) | 2.3 (≈ 4.04 µM) |  |  |  |  |  |  | 10.1 (≈ 17.7 µM) | 4.5 (≈ 7.9 µM) | 22.7 (≈ 39.9 µM) |
